Where only a bound is given, the exact number is not on record here.

For one experiment, the target named is T1, MycN protein (Homo sapiens, UniProt P04198).
T1 construct: either 2×10^6 of L-363 (human leukemia cell line) or SKNBE2 (neuroblastoma cell line) cells; endogenous in cells; host or cells: SKNBE2 / SK-N-BE(2) neuroblastoma cells
T1 sequence (P04198 1-464): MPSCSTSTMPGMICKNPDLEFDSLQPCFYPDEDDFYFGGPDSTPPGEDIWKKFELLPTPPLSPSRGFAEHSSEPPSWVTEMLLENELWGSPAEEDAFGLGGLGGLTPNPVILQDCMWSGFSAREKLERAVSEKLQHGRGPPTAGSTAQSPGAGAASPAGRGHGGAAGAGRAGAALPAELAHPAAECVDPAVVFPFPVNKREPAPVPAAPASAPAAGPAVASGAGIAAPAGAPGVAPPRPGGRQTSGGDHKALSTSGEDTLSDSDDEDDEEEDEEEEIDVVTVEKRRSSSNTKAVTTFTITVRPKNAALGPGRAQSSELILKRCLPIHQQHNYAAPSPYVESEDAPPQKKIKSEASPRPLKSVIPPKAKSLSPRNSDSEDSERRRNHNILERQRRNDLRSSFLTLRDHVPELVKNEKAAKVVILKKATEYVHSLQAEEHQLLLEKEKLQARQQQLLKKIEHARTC
Briefly: Degradation of MycN protein, Western blot, SKNBE2 cells (Example 160). It is filed as cell-based. The method in brief:
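L-363 or SKNBE2 cells (passage <40, mostly <30) at 1×10^6 cells/mL in RPMI 1640/10% FBS were exposed 6 h to compound added from a 1 mM stock. RIPA lysates (25–30 ug protein) were analysed by SDS-PAGE and immunoblot with 1:500 primary antibody, with protein level quantified by band densitometry.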
(Immunoblotting shows a protein as a band on a membrane.)

For the next experiment, the target named is T2, MycC protein (Homo sapiens, UniProt P01106).
T2 construct: either 2×10^6 of L-363 (human leukemia cell line) or SKNBE2 (neuroblastoma cell line) cells; endogenous in cells; host or cells: L-363 / L363 human leukemia cells
The experiment can be described thus: Degradation of MycC protein, Western blot, L-363 cells (Example 160). It is filed as cell-based. Conditions: 6 h. On the procedure:
In a T150 flask was plated either 2×10^6 of L-363 (human leukemia cell line) or SKNBE2 (neuroblastoma cell line) cells in a total of 30 mL containing Roswell Park Memorial Institute (RPMI) 1640 Medium (Thermo Fisher, Cat. #11875-085), 10% Fetal Bovine Serum (FBS, Thermo Fisher: Cat. #10437-028), 1% Penicillin/streptomycin (Thermo Fisher: Cat. #10378016), and 1% Amophotericin B (Thermo Fisher, Cat. #15290026). The cells were split every 72 hours by reseeding the L-363 or SKNBE2 cells, and the passage number was noted. It is noteworthy that cell cultures that were above 40 passages were not used, and most experiments were done with cells of less than 30 passages.
In a 6-well cell culture plate, a total of 3 mL of either 1×10^6 cells/mL of L-363 or SKNBE2 cells were seeded, resulting in a total of 3×10^6 cells per well. To each well containing 3 mL of either L-363 or SKNBE2 cell line was added 6 uL of MycN modulating compound (1 mM) and the resulting plate was shaken from left to right, and not swirled. After 6 hours, the cells were placed in a 15 mL falcon tube and spun at 500 Gs at 4° C. in a swinging bucket centrifuge. The medium was then carefully removed without disturbing the pellet. The pellet was then washed with 3 mLs of chilled phosphate buffered saline (PBS) and subjected to the spin cycle. PBS was then removed and the pellet was lysed in 200 uL of radioimmunoprecipitation (RIPA) lysis buffer (Thermo Fisher: Cat. #899000) that is supplemented with protease and phosphatase inhibitors (Thermo Fisher: Cat. #A32959). The cell lysate was then subjected to spinning in a centrifuge for 10 minutes at 13000 G at 4° C. The supernatant was then carefully transferred to a fresh eppendorf tube without disturbing the pellet (˜180 uL). The protein concentration of the cell lysate was then determined by using a bicinchoninic acid (BCA assay) according to manufacturer's protocol (Thermo Fisher: Cat. #23227).
Cell lysate, approximately 25 ug-30 ug, was loaded per well in a 4-20% polyacrylamide gel (Biorad. Cat. #5671094). After running the dye front off of the gel, the gel was transferred to a nitrocellulose membrane (Biorad: Cat. #1704159) using the transblot turbo system (Biorad: Cat. #1704150) according to manufacturer's protocol. After transferring for 30 minutes, the membrane was blocked with 5% BSA for 1 hour at room temperature. The BSA was then washed off and the primary antibody of choice (1:500) was added, and the membrane was incubated with the primary antibody at 4° C. for overnight. The next morning, the primary antibody was removed and the membrane was washed with 1×-TBST for 10 minutes and repeated three more times. Following the last wash, a secondary antibody (Molecular Devices. Cat. #R8209 or R8208) was added at 1:5000 dilution and incubated for 1 hour at room temperature. Following the incubation with the secondary antibody, the membrane was washed with 1×-TBST for 10 minutes and repeated three more times. Following the last wash, the membrane was washed with de-ionized water twice and dried for at least two hours. Once the membrane is completely dry, the Molecular Devices Spectra Max western system was used to observe the bands. The western image was saved and the band density was measured with ImageJ software.

T2 sequence (P01106 whole entry): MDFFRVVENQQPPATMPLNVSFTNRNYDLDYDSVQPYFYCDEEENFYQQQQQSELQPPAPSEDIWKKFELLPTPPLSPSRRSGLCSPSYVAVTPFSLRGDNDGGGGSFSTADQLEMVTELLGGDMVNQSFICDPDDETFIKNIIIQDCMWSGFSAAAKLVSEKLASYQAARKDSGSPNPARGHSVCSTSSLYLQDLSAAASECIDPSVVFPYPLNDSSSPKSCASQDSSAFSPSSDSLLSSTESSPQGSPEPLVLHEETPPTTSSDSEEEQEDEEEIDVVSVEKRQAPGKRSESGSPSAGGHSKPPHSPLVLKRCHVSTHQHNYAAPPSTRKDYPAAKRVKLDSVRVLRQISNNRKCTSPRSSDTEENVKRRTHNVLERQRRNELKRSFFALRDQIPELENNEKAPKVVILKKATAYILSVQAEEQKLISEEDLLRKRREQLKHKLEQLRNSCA

For the compound `CN(c1nccc(Nc2cc(C3CC3)[nH]n2)n1)C1CCC(CC(=O)Nc2cn(C3COC3)cn2)CC1` [Compound 133, 2-((1R,4R)-4-((4-((5-cyclopropyl-1H-pyrazol-3-yl)amino)pyrimidin-2-yl)(methyl)amino)cyclohexyl)-N-(1-(oxetan-3-yl)-1H-imidazol-4-yl)acetamide], the inhibition – broadly, the share of the control response that was lost under treatment – at 2 µM against MycN protein (SKNBE2, 6 h) is 80 to 100%; at MycC protein, 80 to 100%.

Consider `CN(c1nccc(Nc2cc(C3CC3)[nH]n2)n1)C1CCC(CC(=O)NC2Cc3cc(F)c(F)cc3C2)CC1` (centres unmarked) [Compound 134, 2-(4-((4-((5-cyclopropyl-1H-pyrazol-3-yl)amino)pyrimidin-2-yl)(methyl)amino)cyclohexyl)-N-(5,6-difluoro-2,3-dihydro-1H-inden-2-yl)acetamide], for which the inhibition at 2 µM lay in the range of 20 to 49% against MycN protein (6 h) and 80 to 100% against MycC protein.

In the case of `CN(c1nccc(Nc2cc(C3CC3)[nH]n2)n1)[C@H]1CC[C@H](NC(=O)c2ccc(S(C)(=O)=O)cn2)CC1` [Compound 135, N-((1R,4R)-4-((4-((5-cyclopropyl-1H-pyrazol-3-yl)amino)pyrimidin-2-yl)(methyl)amino)cyclohexyl)-5-(methylsulfonyl)picolinamide], the inhibition at 2 µM against MycN protein (SKNBE2, 6 h) is under 20%; on MycC protein, 80 to 100%.

For the compound `CN(c1nccc(Nc2cc(C3CC3)[nH]n2)n1)[C@H]1CC[C@H](NC(=O)c2cccc(C#N)c2)CC1` [Compound 136, 3-cyano-N-((1R,4R)-4-((4-((5-cyclopropyl-1H-pyrazol-3-yl)amino)pyrimidin-2-yl)(methyl)amino)cyclohexyl)benzamide], the values for the inhibition at 2 µM at MycN protein (6 h) and against MycC protein were 50 to 79% and 80 to 100%, respectively.

For the compound `CN(c1nccc(Nc2cc(C3CC3)[nH]n2)n1)[C@H]1CC[C@H](NC(=O)c2ccc(C#N)cn2)CC1` [Compound 137, 5-cyano-N-((1R,4R)-4-((4-((5-cyclopropyl-1H-pyrazol-3-yl)amino)pyrimidin-2-yl)(methyl)amino)cyclohexyl)picolinamide], the inhibition at 2 µM at MycN protein (SKNBE2, 6 h) was under 20%; on MycC protein it was 20 to 49%.

On to `CN(c1cc(C2CCCC2)[nH]n1)c1ccnc(N(C)C2CCC(CC(=O)NC3Cc4ccc(C#N)cc4C3)CC2)n1` (centres unmarked) [Compound 138, N-(5-cyano-2,3-dihydro-1H-inden-2-yl)-2-(4-((4-((5-cyclopentyl-1H-pyrazol-3-yl)(methyl)amino)pyrimidin-2-yl)(methyl)amino)cyclohexyl)acetamide], for which the inhibition at 2 µM against MycN protein (6 h) and on MycC protein was under 20% throughout.

As for `Cn1nnc2cc(C(=O)N[C@H]3CC[C@H](N(C)c4nccc(Nc5cc(C6CC6)[nH]n5)n4)CC3)ccc21` [Compound 139, N-((1R,4R)-4-((4-((5-cyclopropyl-1H-pyrazol-3-yl)amino)pyrimidin-2-yl)(methyl)amino)cyclohexyl)-1-methyl-1H-benzo[d][1,2,3]triazole-5-carboxamide], the inhibition at 2 µM was in the range of 80 to 100% against MycN protein (SKNBE2, 6 h) and 80 to 100% on MycC protein.

Take `Cn1cc(C(=O)N[C@H]2CC[C@H](N(C)c3nccc(Nc4cc(C5CC5)[nH]n4)n3)CC2)nn1` [Compound 140, N-((1R,4R)-4-((4-((5-cyclopropyl-1H-pyrazol-3-yl)amino)pyrimidin-2-yl)(methyl)amino)cyclohexyl)-1-methyl-1H-1,2,3-triazole-4-carboxamide]: the inhibition at 2 µM against MycN protein (SKNBE2, 6 h) was in the range of 80 to 100%; on MycC protein, 80 to 100%.

In the case of `CN(c1nccc(Nc2cc(C3CC3)[nH]n2)n1)[C@H]1CC[C@H](NC(=O)c2cn3cccnc3n2)CC1` [Compound 141, N-((1R,4R)-4-((4-((5-cyclopropyl-1H-pyrazol-3-yl)amino)pyrimidin-2-yl)(methyl)amino)cyclohexyl)imidazo[1,2-a]pyrimidine-2-carboxamide], the inhibition at 2 µM against MycN protein (SKNBE2, 6 h) is 80 to 100%; against MycC protein, 80 to 100%.

Regarding `CN(c1nccc(Nc2cc(C3CC3)[nH]n2)n1)[C@H]1CC[C@H](NC(=O)c2nc3ccccn3n2)CC1` [Compound 142, N-((1R,4R)-4-((4-((5-cyclopropyl-1H-pyrazol-3-yl)amino)pyrimidin-2-yl)(methyl)amino)cyclohexyl)-[1,2,4]triazolo[1,5-a]pyridine-2-carboxamide], the inhibition at 2 µM was in the range of 80 to 100% on MycN protein (SKNBE2, 6 h) and 80 to 100% at MycC protein.

Take `CN(c1cc(C2CCCC2)[nH]n1)c1ccnc(N(C)[C@H]2CC[C@H](NC(=O)C3Cc4ccccc4C3)CC2)n1` [Compound 143, N-((1R,4R)-4-((4-((5-cyclopentyl-1H-pyrazol-3-yl)(methyl)amino)pyrimidin-2-yl)(methyl)amino)cyclohexyl)-2,3-dihydro-1H-indene-2-carboxamide]: the inhibition at 2 µM against MycN protein (SKNBE2, 6 h) is under 20%; at MycC protein, under 20%.

In the case of `Cn1nnc(CNC(=O)[C@H]2CC[C@H](N(C)c3nccc(Nc4cc(C5CC5)[nH]n4)n3)CC2)n1` [Compound 144, (1R,4R)-4-((4-((5-cyclopropyl-1H-pyrazol-3-yl)amino)pyrimidin-2-yl)(methyl)amino)-N-((2-methyl-2H-tetrazol-5-yl)methyl)cyclohexane-1-carboxamide], the inhibition at 2 µM against MycN protein (SKNBE2, 6 h) fell in the range of 80 to 100%; at MycC protein, 80 to 100%.

With `Cn1nnc(C(=O)N[C@H]2CC[C@H](N(C)c3nccc(Nc4cc(C5CCCC5)[nH]n4)n3)CC2)n1` [Compound 145, N-((1R,4R)-4-((4-((5-cyclopentyl-1H-pyrazol-3-yl)amino)pyrimidin-2-yl)(methyl)amino)cyclohexyl)-2-methyl-2H-tetrazole-5-carboxamide], the inhibition at 2 µM against MycN protein (SKNBE2, 6 h) is 50 to 79%; at MycC protein, 80 to 100%.

For the compound `CN(c1cc(C2CC2)[nH]n1)c1ccnc(N(C)[C@H]2CC[C@H](NC(=O)c3nnn(C)n3)CC2)n1` [Compound 147, N-((1R,4R)-4-((4-((5-cyclopropyl-1H-pyrazol-3-yl)(methyl)amino)pyrimidin-2-yl)(methyl)amino)cyclohexyl)-2-methyl-2H-tetrazole-5-carboxamide], the inhibition at 2 µM against MycN protein (SKNBE2, 6 h) is under 20%; on MycC protein it was 20 to 49%.

Regarding `CN(c1cc(C2CCCC2)[nH]n1)c1ccnc(N(C)[C@H]2CC[C@H](NC(=O)c3cccc(S(C)(=O)=O)c3)CC2)n1` [Compound 148, N-((1R,4R)-4-((4-((5-cyclopentyl-1H-pyrazol-3-yl)(methyl)amino)pyrimidin-2-yl)(methyl)amino)cyclohexyl)-3-(methylsulfonyl)benzamide], the inhibition at 2 µM against MycN protein (SKNBE2, 6 h) was under 20%; against MycC protein, 20 to 49%.

Consider `CN(c1nccc(Nc2cc(C3CC3)[nH]n2)n1)[C@H]1CC[C@H](NC(=O)c2cn(C3COC3)nn2)CC1` [Compound 149, N-((1R,4R)-4-((4-((5-cyclopropyl-1H-pyrazol-3-yl)amino)pyrimidin-2-yl)(methyl)amino)cyclohexyl)-1-(oxetan-3-yl)-1H-1,2,3-triazole-4-carboxamide], for which the inhibition at 2 µM against MycN protein (SKNBE2, 6 h) fell in the range of 80 to 100%; against MycC protein, 80 to 100%.
